Test results from patent US11229626B2, “Synergistic nutritional compositions for treating seizures and chronic inflammatory diseases” (CELAGENEX RESEARCH (INDIA) PVT. LTD., priority 2020, dated 2022).

System: PTZ induced rat model
Assay: PTZ (pentylene-tetrazole) induced convulsions, anti-convulsant activity in Wistar rats
Format: in vivo
Conditions: male Wistar rats, n=6 per group, 60 mg/kg PTZ intraperitoneally 1 hr after test item; for Straub Tail / Clonic Convulsions / Stupor / Tonic Convulsions: doses per Table 1; for Clonic Convulsions / Stupor / Tonic Convulsions: mean; for Recovery: outcome recovery or death
Description: The purpose of this study is to evaluate the effect of anti-convulsant activity of the test compound in Wistar Rats.
The systemic administration of PTZ is one of the most commonly employed methods for anti-convulsant screening. The preference has been given to this model due to its ease of performance, reliability, ease of expressing results and the shorter time-period to produce convulsions.
60 mg/kg of PTZ was injected per body weight, intraperitoneally 1 hr after the test item administration.
All animals were acclimatized for five days and seizures were induced by administering 60 mg/kg PTZ per body weight, 1 hr after test item administration. Normal control group was injected with phosphate buffer solution.
As Group 1 (Vehicle control), Group 2 served as diseased control, Group 3 was Reference standard and Group 4, Group 5 and Group 6 served as test substance. The dose was administered for short term (single day administration) or long term (14 or 21 days) after acclimatization.
The time was recorded for convulsion phase clonic, tonic and stupor after test administration. All values were expressed as MEAN±STD. The significant difference between the treatment and control group was estimated using oneway ANOVA with Dennett's test. All results of the statistical analysis were summarized in separate tables.

SMILES | Straub Tail | Clonic Convulsions | Stupor | Tonic Convulsions | Recovery
C[N+](C)(C)[C@@H](Cc1c[nH]c(=S)[nH]1)C(=O)O [L-Ergothioneine, L-ergothioneine] | Absent | 4.66 s | 70.33 s | 8.00 s | Recovery
CC[C@@H](C(N)=O)N1CCCC1=O [Levetiracetam, reference compound] | Absent | 3.33 s | 56.16 s | 5.83 s | Recovery
CCCCCCCCCC(=O)OCC(COC(=O)CCCCCCCCC)OC(=O)CCCCCCCCC [Tridecanoin] | Absent | 5.00 s | 74.16 s | 7.66 s | Recovery
